Test results taken from patent US7786098B2, “Fluoroalkoxycombretastatin derivatives, method for producing the same and use thereof” (Zhejiang Dade Pharmaceutical Group Co. Ltd., priority 2006, dated 2010).
pIC50: −log10 of the molar value. Read-outs that look alike come from different tables or passages of the source.

Legend:
[1] = test system: tubulin; settings: U.S. Pat. No. 5,561,122; WO 9935150; cited from earlier work
[2] = test system: tumor; settings: within 4 to 6 hours after the treatment of CA-4, cancer patients; cited from earlier work
[3] = test system: H460 human lung cancer cell; test: In vitro antitumor activity evaluation (SRB/MTT, 72 hours), H460; type: cell-based; settings: Logit model, read-out: IC50 Non-small cell lung cancer H460
Protocol: (§1) The tumor cell cultured in vitro being administrated with fluoroalkoxycombretastatin for 72 hours, the MTT and SRB assays was used to evaluate its inhibition of tumor proliferation.
(§2) Cell groups: H460 human lung cancer cell, SGC7901: human stomach cancer cell, HT-29 human colon cancer cell, Bel-7402 human liver cancer cell.
(§3) Experiment design: cells were warm-cultured with the compounds in different concentrations (100, 10, 1, 0.1, 0.01, 0.001 μM) for 72 hours. SRB assay was used to evaluate the inhibition degree of the compounds to cell proliferation. The inhibition rate was calculated, and IC50 was calculated by using Logit model according to the inhibition rate. And the antitumor activity of compounds in vitro was compared.
(§4) The inhibition rate was expressed using the following equation: Inhibition rate (%)=[(average OD value of control group−average OD value of experimental group)/average OD value of control group]×100%.

[4] = test system: human umbilical vein endothelial cells (HUVEC); test: In vitro neovascular inhibition evaluation; type: cell-based; settings: same method as Example 15 (72 hours)
Protocol: as §1, §3, §4
Anti-angiogenesis effects of fluoroalkoxycombretastatins were assessed in human umbilical vein endothelial cells (HUVEC) using the same method in Example 15.

[5] = test system: SGC7901 human stomach cancer cell; test: In vitro antitumor activity evaluation (SRB/MTT, 72 hours), SGC-7901; type: cell-based; settings: Logit model
Protocol: as §1, §2, §3, §4

[6] = test system: Bel-7402 human liver cancer cell; test: In vitro antitumor activity evaluation (SRB/MTT, 72 hours), Bel-7402; type: cell-based; settings: Logit model
Protocol: as §1, §2, §3, §4

[7] = test system: HT-29 human colon cancer cell; test: In vitro antitumor activity evaluation (SRB/MTT, 72 hours), HT-29; type: cell-based; settings: Logit model, read-out: IC50 Colon cancer HT29
Protocol: as §1, §2, §3, §4

[8] = Homo sapiens, NCI-H460, SRB assay
[9] = Homo sapiens, SGC-7901, SRB assay
[10] = Homo sapiens, Bel-7402, SRB assay

For `COc1ccc(/C=C\c2cc(OC)c(OC)c(OC)c2)c(O)c1O` [CA-1, combretastatin A-1], the “inhibition of tubulin polymerization” value [1] is listed as “exceptionally strong inhibitors of tubulin polymerization”.

For `COc1ccc(/C=C\c2cc(OC)c(OC)c(OC)c2)cc1O` [CA-4, combretastatin A-4, reference compound], the “inhibition of tubulin polymerization” value [1] is listed as “exceptionally strong inhibitors of tubulin polymerization”, the blood flow [2] is listed as “decreased obviously” and the tumor cells died [2] is listed as “more than 95%”. For the same compound, the pIC50 ([3]; SRB assay) was 7.57, the pIC50 [4] was 8.52 and the pIC50 ([5]; SRB assay) was 8.00. The pIC50 ([6]; SRB assay) was 6.12 and the pIC50 ([7]; SRB assay) was 5.62.

Work on `COc1cc(/C=C\c2ccc(OC(F)F)c(O)c2)cc(OC)c1OC` [DD8011, (Z)-1-(3,4,5-trimethoxyphenyl)-2-(3′-hydroxy-4′-difluoromethoxyphenyl)-ethene] yielded a pIC50 [3, 8] of 7.36, a pIC50 ([4]; Homo sapiens, HUVEC) of 8.70 and a pIC50 [5, 9] of 7.66. It also gave a pIC50 [6, 10] of 6.04 and a pIC50 ([7]; Homo sapiens, HT-29, SRB assay) of 5.52.

Compound `COc1cc(/C=C\c2ccc(OC(F)F)c(N)c2)cc(OC)c1OC` [DD8021, (Z)-1-(3,4,5-trimethoxyphenyl)-2-(3′-amino-4′-difluoromethoxyphenyl)-ethene] has a pIC50 [3, 8] of 7.44, a pIC50 ([4]; Homo sapiens, HUVEC) of 8.70 and a pIC50 [5, 9] of 7.74. The pIC50 [6, 10] was 6.08 and the pIC50 ([7]; Homo sapiens, HT-29, SRB assay) was 5.65.

Compound `COc1cc(/C=C\c2ccc(OCC(F)(F)F)c(O)c2)cc(OC)c1OC` [DD8031, (Z)-1-(3,4,5-trimethoxyphenyl)-2-(3′-hydroxy-4′-trifluoroethoxyphenyl)-ethene] has a pIC50 [3, 8] of 8.30, a pIC50 ([4]; Homo sapiens, HUVEC) of 9.00 and a pIC50 [5, 9] of 8.30. The pIC50 [6, 10] was 6.52 and the pIC50 ([7]; Homo sapiens, HT-29, SRB assay) was 7.10.

`COc1cc(/C=C\c2ccc(OCC(F)(F)F)c(N)c2)cc(OC)c1OC` [DD8041, (Z)-1-(3,4,5-trimethoxyphenyl)-2-(3′-amino-4′-trifluoroethoxyphenyl)-ethene] gave a pIC50 [3, 8] of 8.30, a pIC50 ([4]; Homo sapiens, HUVEC) of 9.00 and a pIC50 [5, 9] of 8.52. The pIC50 [6, 10] was 6.55 and the pIC50 ([7]; Homo sapiens, HT-29, SRB assay) was 7.17.
